Read-outs that look alike come from different tables or passages of the source.
Legend:
[1] = tested on: motor neurons (MNs) from spinal cord explants; assay: Axonal transport assay of Qdot-BDNF in microfluidic chamber; format: cell-based, mice; conditions: for velocity of BDNF axonal transport: S1R−/− (S1R KO) MNs
Source text: Healthy motor neurons (MN) extend axons over long distances and through varying extracellular microenvironments to form synapses with muscles. The ability of the neuron to maintain this specialized morphology depends on cytoskeletal elements and continuous transport of proteins and organelles to and from the cell body. Cytoskeletal alterations are a major pathway implicated in the pathogenesis of ALS affecting axonal transport, growth and neuromuscular junction (NMJ) function (Eykens and Robberecht, 2015). Alterations in axonal transport are one of the first cellular processes that occur in neurodegenerative disease, including ALS. Axonal transport was evaluated using an in vitro compartmentalized system of microfluidic chambers (MFC) that separates neuronal cell bodies from their axons and synapses, enabling the study of retrograde/anterograde transport by specific monitoring and manipulation of cellular microenvironments (FIG. 1b: Zahavi 2015; Ionescu 2016).
Quantum-Dot labeled BDNF (Qdot BDNF) is retrogradely transported in axons of motor neurons grown from spinal cord explants in a microfluidic chamber (MFC). A MFC was used to analyze Qdot BDNF axonal transport. Axonal transport of BDNF in the SOD1 model (SOD1G93A) for ALS has been studied (Bilsland 2010; Perlson 2009; De Vos 2007). The effect of pridopidine on transport of Qdot BDNF along the axons of motor neurons was assessed in spinal cord explants from E12.5 SOD1 G93A and WT littermate mice (LM). Experimental workflow for the axonal transport assay (from left to right, FIG. 1a): SOD1G93A or wild Type (LM) spinal cord explants were plated in the MFC. At about 5 days post plating, axons began to cross over into the distal compartment. On day 6 post plating, an amount of pridopidine was added to both compartments. On day 7, Qdot-BDNF was added to the distal compartment and axonal transport was imaged using a high-resolution spinning-disk confocal microscope. Schematic illustration of microfluidic chamber system (FIG. 1b): Explants planted in the proximal compartment extend axons to the distal compartment, where Qdot-BDNF is applied exclusively prior to visualization.
Spinning disk confocal microscopy was used to track Qdot BDNF along the axons of motor neuron explant cultures. Time lapse images of Qdot-BDNF axonal transport as acquired at 60× magnification (FIG. 1c). Arrowheads point to a single Qdot-BDNF particle that is retrogradely transported (left) towards the cell body. Scale bar: 10 μm. […] Scale bars: horizontal 10 μm: vertical 100 seconds (FIG. 1c).
. Six independent biological repeats, from 6 different cultures were tested so that from each culture and explant with neurons/glia ˜250 BDNF particles were followed along the axons in the grooves. Velocity refers to the movement of a single BDNF particle. The experiment was repeated with MNs from mice in which sigma 1 receptor was genetically deleted (S1R KO or S1R−/−) (Langa, 2003). Ventral spinal cord sections from S1R−/− mice embryos were cultured and plated in the MFC as described above, and the axonal transport of Qdot-BDNF was analyzed.
SOD1G93 and S1R−/− explants with or without pridopidine were compared to littermate controls (LM).
Qdot-BDNF particle tracking was performed on Bitplane Imaris, using the semi-automated spot tracking function. […]; stop duration: speed<0.1 μm/sec for 3 frames. Data were then exported to MATLAB for further analysis of particle transport including Instantaneous Velocities (FIG. 2a) from 6 independent cultures, and Stop count (FIG. 2b).

MN-myocyte co-culture = tested on: MN-myocyte co-culture
Method: Synapse disruption is the earliest cellular compartment disrupted in ALS. To test the ability of pridopidine to affect synapse function in an ALS model, cultures from Experiment 2 were grown for approximately four additional days (day 18), when axons extend into the distal compartment and generate NMJs.
Scale bar: 201 μm. […] To evaluate NMJ function, movies of muscle contraction were acquired at a frame rate of 30 frames per second for 1000 frames (FIG. 5b).
Briefly, contractile activity of muscles in the distal compartment of the MFC, which were overlapped by at least one axon was examined. Muscles were categorized into two groups: ‘Contracting’ or ‘Non-contracting’, depending on their motile activity during the movie. The motility of muscles was validated by generating intensity-over-time plots for each muscle (FIG. 5b). The number of contracting muscle fibers per chamber was divided by the total number of muscle fibers analyzed in the same chamber, yielding the percentage of contracting myotubes as an output for NMJ activity.

ERK = conditions: 30 minutes
Method: The ERK pathway promotes numerous cellular functions including proliferation and differentiation. […] Primary MN cultures at 2 DIV were starved overnight in neurotrophin- and serum-free medium (PNB). The following day, cultures were treated for 30 minutes with pridopidine or with BDNF as a positive control.

SOD1G93A mice = conditions: 30 mg/kg daily s.c. for 11 weeks
Method: Presymptomatic SOD1G93A mice (5 weeks of age) and WT controls were treated with either saline, 3 or 30 mg/kg pridopidine, by daily s.c. (subcutaneous) administration for 11 weeks (until 16 weeks of age). At the end of the experiment, lumbar spinal cords (L1-L6) were extracted, fixed, and embedded for cryosectioning.

[2] = tested on: SOD1G93A mice and WT controls; conditions: for increase in the muscle fiber diameter: Gastrocnemius, 30 mg/kg s.c. daily
Method: NMJ disruption and the subsequent skeletal muscle wasting are two main pathologies of ALS. Effect of pridopidine on muscle fiber atrophy and preservation of NMJs was evaluated in-vivo. Presymptomatic SOD1G93A mice and WT controls (5 weeks old) were treated with either saline, or pridopidine 3 or 30 mg/kg, by daily s.c. administration for 11 weeks. The Gastrocnemius muscles from vehicle or pridopidine-treated (30 mg/kg s.c.) mice were extracted from the SOD1G93A and WT mice at age 16 weeks. Muscle cross-sections were stained with Hematoxylin & Eosin (H& E), and the mean muscle fiber diameter was quantified for each group (FIG. 10a). NMJ preservation was evaluated by confocal imaging of co-localizing pre (NFH+Synapsin-I (green)- and post-synaptic (AchR (BTX; red) markers and counting the number of fully innervated NMJs in gastrocnemius muscles (FIG. 11a).

[3] = tested on: motor neuron axons co-cultured with primary myocytes; conditions: myocytes carrying SOD1G93A mutation, 1 μM
Method: Primary muscle cells from presymptomatic (P60) WT or SOD1G93A mice were cultured. On day 6 primary skeletal myoblasts were cultured in the distal compartment of a MFC. About six days later (day 12), ventral spinal cord explants from WT or SOD1G93A E12.5 mouse embryos that express HB9-GFP (a specific motor neuron marker) were plated in the proximal compartment, followed by application of pridopidine or vehicle to both compartments. Pridopidine was refreshed every other day. Two days post explant plating (day 14), motor axon growth and degeneration were evaluated using live imaging on a spinning disc confocal system. Axonal growth was tracked by imaging every 10 min for 8 hrs. Experiments were repeated three times.

[4] = tested on: human subjects afflicted with ALS; conditions: periodic oral administration
neuroblastoma cell line = conditions: S1R-dependent (Geva 2016); cited from earlier work
rat striatum = conditions: transcriptomic analysis; cited from earlier work
S1R = conditions: by activation of the S1R (Ryskamp 2017); cited from earlier work
ALS patients = conditions: cited from earlier work

## CCCN1CCC(c2cccc(S(C)(=O)=O)c2)CC1 [pridopidine, 4-(3-(Methylsulfonyl)phenyl)-1-propylpiperidine]
[1]; 0.1 μM
  velocity of BDNF axonal transport: not able to recover these defects
[1]; 1 μM
  velocity of BDNF axonal transport: not able to recover these defects
[1]; S1R−/− MNs, any of the concentrations tested
  axonal transport parameters of Qdot-BDNF: not responsive to pridopidine
[1]; SOD1G93A MNs, 0.1 μM
  instantaneous velocity of Qdot-BDNF particles: accelerated the instantaneous velocities
  particle stop count (number of counted stops of Qdot-BDNF per second): reduced the number of pauses during axonal transport
[1]; SOD1G93A MNs, 1 μM
  instantaneous velocity of Qdot-BDNF particles: accelerated the instantaneous velocities
  particle stop count (number of counted stops of Qdot-BDNF per second): reduced the number of pauses during axonal transport
[1]; WT MNs, 0.1 μM
  particle stop count (number of counted stops of Qdot-BDNF per second): reduced the number of pauses during axonal transport
[1]; WT MNs, 0.1 μM, overnight incubation
  instantaneous velocity of Qdot-BDNF particles: accelerated the instantaneous velocities
MN-myocyte co-culture; S1R−/− MNs co-cultures, 0.1μM
  percentage of contracting myocytes (neuromuscular activity): did not restore the neuromuscular activity
MN-myocyte co-culture; S1R−/− MNs co-cultures, 1 μM
  percentage of contracting myocytes: significantly lower than the percentage of contracting myocytes in untreated and treated WT cultures
MN-myocyte co-culture; SOD1G93A myocytes co-culture, 0.1μM
  percentage of contracting myocytes: increases the percentage of contracting myocytes and restores neuromuscular activity to WT levels
MN-myocyte co-culture; SOD1G93A myocytes co-culture, 1μM
  percentage of contracting myocytes: increases the percentage of contracting myocytes and restores neuromuscular activity to WT levels
MN-myocyte co-culture; muscles carrying SOD1 mutation, 1 μM
  innervation rate of muscles: increases innervation rate of muscles carrying SOD1 mutation to near WT levels
ERK; S1R−/− MN cultures, 0.1 μM and 1 μM
  activation of ERK (pERK): but not in S1R−/− MN cultures
ERK; SOD1G93A MNs, 0.1 μM
  increase in pERK (pERK/ERK ratio): ~2.9 fold
ERK; SOD1G93A MNs, 1 μM
  increase in pERK (pERK/ERK ratio): ~8.5 fold
ERK; WT MNs, 0.1 μM
  increase in pERK (pERK/ERK ratio): ~3.5 fold
ERK; WT MNs, 1 μM
  increase in pERK (pERK/ERK ratio): ~4 fold
SOD1G93A mice; spinal cord gray matter
  reduction of number of mutant SOD1 aggregates, gray matter: ~50%
SOD1G93A mice; spinal cord white matter
  reduction of number of mutant SOD1 aggregates, white matter: ~50%
[2]; SOD1G93A mice compared to WT, gastrocnemius, pridopidine treated
  loss of NMJs: ~20%
[2]; SOD1G93A mice
  increase in the muscle fiber diameter: ~4 μm
[2]; WT mice
  increase in the muscle fiber diameter: ~5 μm
[3]
  axonal growth: number of grooves with axons crossing into muscle compartment: increased number of axons crossing into the distal compartment
[4]
  symptoms of ALS in human subjects: provides a clinically meaningful advantage in reducing the symptoms of ALS
Neuroblastoma cell line
  secretion of BDNF: enhance secretion of the neuroprotective brain-derived neurotrophic factor (BDNF)
Rat striatum
  expression of BDNF, D1R, GR and Akt/PI3K pathways: activates expression
S1R
  spine impairment and aberrant calcium signaling: rescue spine impairment and aberrant calcium signaling

## Nc1nc2ccc(OC(F)(F)F)cc2s1 [riluzole, reference compound]
[1]; SOD1G93A MNs, 100l M (printed)
  instantaneous velocity of Qdot-BDNF particles: did not affect the instantaneous velocities
[1]; SOD1G93A MNs, 251M (printed)
  instantaneous velocity of Qdot-BDNF particles: did not affect the instantaneous velocities
ALS patients
  rate of progression of the disease: slows the rate of progression of the disease

## CC1=NN(c2ccccc2)C(=O)C1 [edaravone]
ALS patients
  physical decline: slows physical decline

— patent US11406625B2, “Method of treating amyotrophic lateral sclerosis with pridopidine” (PRILENIA NEUROTHERAPEUTICS LTD., priority 2017, dated 2022)
